# Measurements taken from a compilation of properties of binary mixtures (doi:10.1016/j.molliq.2018.08.031).
# Experiment: xn = mol fraction of the nth substance listed
# Conditions: 100 kPa
smiles,measurement,setting,value
COCCOCCOC + CCCC[n+]1ccn(C)c1.F[P-](F)(F)(F)(F)F,viscosity,"283.15 K, x2 = 0.0571",2.381 mPa·s
same,viscosity,"283.15 K, x2 = 0.1013",3.238 mPa·s
same,viscosity,"283.15 K, x2 = 0.2923",11.69 mPa·s
same,viscosity,"283.15 K, x2 = 0.39",19.81 mPa·s
same,viscosity,"283.15 K, x2 = 0.492",37.5 mPa·s
same,viscosity,"283.15 K, x2 = 0.6827",114.6 mPa·s
same,viscosity,"283.15 K, x2 = 0.9711",618 mPa·s
same,viscosity,"293.15 K, x2 = 0.057",1.99 mPa·s
same,viscosity,"293.15 K, x2 = 0.1982",4.59 mPa·s
same,viscosity,"293.15 K, x2 = 0.2963",7.91 mPa·s
same,viscosity,"293.15 K, x2 = 0.3913",14.79 mPa·s
same,viscosity,"293.15 K, x2 = 0.5865",39.52 mPa·s
same,viscosity,"293.15 K, x2 = 0.6814",66.5 mPa·s
same,viscosity,"293.15 K, x2 = 0.7968",124.3 mPa·s
same,viscosity,"293.15 K, x2 = 0.892",209.7 mPa·s
same,viscosity,"303.15 K, x2 = 0.0995",1.623 mPa·s
same,viscosity,"303.15 K, x2 = 0.1973",2.826 mPa·s
same,viscosity,"303.15 K, x2 = 0.2994",5.146 mPa·s
same,viscosity,"303.15 K, x2 = 0.4896",14.66 mPa·s
same,viscosity,"303.15 K, x2 = 0.5893",24.8 mPa·s
same,viscosity,"303.15 K, x2 = 0.6884",40.83 mPa·s
same,viscosity,"303.15 K, x2 = 0.8923",113.3 mPa·s
same,viscosity,"303.15 K, x2 = 0.9596",158.7 mPa·s
same,viscosity,"313.15 K, x2 = 0.057",0.953 mPa·s
same,viscosity,"313.15 K, x2 = 0.0943",0.744 mPa·s
same,viscosity,"313.15 K, x2 = 0.1995",0.789 mPa·s
same,viscosity,"313.15 K, x2 = 0.2856",1.631 mPa·s
same,viscosity,"313.15 K, x2 = 0.4877",7.46 mPa·s
same,viscosity,"313.15 K, x2 = 0.6781",21.08 mPa·s
same,viscosity,"313.15 K, x2 = 0.7994",38.25 mPa·s
same,viscosity,"313.15 K, x2 = 0.8941",61 mPa·s
same,viscosity,"313.15 K, x2 = 0.9553",83.2 mPa·s
